# From patent US20190358181A1, “METHODS FOR AUTISM SPECTRUM DISORDER PHARMACOTHERAPY” (priority 2017, published 2019)
# Test system: 610 metabolites from 63 biochemical pathways
# Test: Targeted broad-spectrum plasma metabolomic analysis (LC-MS/MS), paired pre-infusion vs post-infusion (2-days and 6-weeks)
# Format: in vivo, human
# Details: for Linear Ratio / VIP Score / Z Abs / Z Score: plasma
# Experimental: Targeted, broad-spectrum, plasma metabolomic analysis of 610 metabolites from 63 biochemical pathways was performed by high performance liquid chromatography and tandem mass spectrometry (LC-MS/MS) on the samples collected from patients in Example 1. Venous blood was collected between the hours of 8 am and 5 pm, at least 3 hours after the last meal, into lithium-heparin vacutainer tubes (BD #367884). Plasma was separated by centrifugation at 900 g×10 minutes at room temperature within one hour of collection. The resulting fresh lithium-heparin plasma was transferred to labeled 1.2 ml or 2.0 ml externally threaded cryotubes with a minimum headspace air gap for storage at −80° C. for analysis. Samples were analyzed on an AB SCIEX QTRAP 5500 triple quadrupole mass spectrometer equipped with a Turbo V electrospray ionization (ESI) source, Shimadzu LC-20A UHPLC system, and a PAL CTC autosampler. Typically, 90 μl of plasma was thawed on ice and transferred to a 1.7 ml Eppendorf tube. Five (5.0) μl of a cocktail containing 25-35 commercial stable isotope internal standards, and 5.0 μl of 57 stable isotope internal standards that were custom-synthesized in E. coli NCM3722, Caenorhabditis elegans N2, and Komagataella phaffii (ATCC 76273; formerly known as Pichia pastoris) by metabolic labeling with 13C-glucose and 13C-bicarbonate, were added, mixed, and incubated for 10 min at 20° C. to permit small molecules and vitamins in the internal standards to associate with plasma binding proteins. Macromolecules (protein, DNA, RNA, glycans, etc.) were precipitated by extraction with 4 volumes (400 μl) of cold (−20° C.), acetonitrile:methanol (50:50) (LCMS grade, Cat #LC015-2.5 and GC230-4, Burdick & Jackson, Honeywell), vortexed vigorously, and incubated on crushed ice for 10 min, then removed by centrifugation at 16,000 g×10 min at 4° C. The supernatants containing the extracted metabolites and internal standards in the resulting 40:40:20 solvent mix of acetonitrile:methanol:water were transferred to labeled cryotubes and stored at −80° C. for LCMS/MS analysis.
# LC-MS/MS analysis was performed by scheduled multiple reaction monitoring (sMRM) under Analyst v1.6.2 software control in both negative and positive mode with rapid polarity switching (50 ms). Nitrogen was used for curtain gas (set to 30), collision gas (set to high), ion source gas 1 and 2 (set to 35). The source temperature was 500° C. Spray voltage was set to −4500 V in negative mode and 5500 V in positive mode. The values for Q1 and Q3 mass-to-charge ratios (m/z), declustering potential (DP), entrance potential (EP), collision energy (CE), and collision cell exit potential (CXP) were determined and optimized for each MRM for each metabolite. Ten microliters of extract was injected by PAL CTC autosampler via a 10 μl stainless steel loop into a 250 mm×2.0 mm, 4 μm polymer based NH2 HPLC column (Asahipak NH2P-40 2E, Showa Denko America, Inc., NY) held at 25° C. for chromatographic separation. The mobile phase was solvent A: 95% water with 20 mM (NH4)2CO3 (Sigma, Fluka Cat #74415-250G-F), 5% acetonitrile, and 38 mM NH4OH (Sigma, Fluka Cat #17837-100ML), final pH 9.75; solvent B: 100% acetonitrile. Separation was achieved using the following gradient: 0-3.5 min: 95% B, 3.6-8 min: 85% B, 8.1-13 min: 75% B, 13.5-35 min: 0% B, 36-46 min: 95% B, 46.1 min: end. The flow rate was 200 μl/min. Pump pressures ranged from 920-2600 psi over the course of the gradient. All the samples were kept at 4° C. during analysis. The chromatographic peaks were identified using MultiQuant (v3.0, Sciex), confirmed by manual inspection, and the peak areas integrated. […]
# [1] = S-Adenosylhomocysteine, 6-weeks
# [2] = SAM, SAH, Methionine, Cysteine, Glutathione, 2-days
# [3] = SAM, SAH, Methionine, Cysteine, Glutathione, 6-weeks
# [4] = Sphingomyelin Metabolism, 2-days
# [5] = Sphingomyelin Metabolism, 6-weeks
# [6] = Subtotal, all pathways, 6-weeks
# [7] = Subtotals, all pathways, 2-days
# [8] = Taurine, Hypotaurine Metabolism, 2-days
# [9] = Tryptophan, Kynurenine, Serotonin, Melatonin, 6-weeks
# [10] = Tryptophan, Kynurenine, Serotonin, 2-days
# [11] = Tyrosine and Phenylalanine Metabolism, 2-days
compound,measurement,setting,value
"Cc1ccc(C(=O)Nc2ccc(S(=O)(=O)O)c3cc(S(=O)(=O)O)cc(S(=O)(=O)O)c23)cc1NC(=O)c1cccc(NC(=O)Nc2cccc(C(=O)Nc3cc(C(=O)Nc4ccc(S(=O)(=O)O)c5cc(S(=O)(=O)O)cc(S(=O)(=O)O)c45)ccc3C)c2)c1 [Suramin, suramin]",Fraction of Impact (VIP Score) Explained (% of 119.7),"Purine Metabolism, 2-days",15%
same,Impact (Sum VIP Score),"Purine Metabolism, 2-days",17.6
same,Increased,"Purine Metabolism, 2-days",4
same,Observed Hits in the Top 61 Metabolites,"Purine Metabolism, 2-days",9
same,Decreased,"Purine Metabolism, 6-weeks",2
same,Fold Enrichment (Obs/Exp),"Purine Metabolism, 6-weeks",1.7
same,Fraction of Impact (VIP Score) Explained (% of 94.6),"Purine Metabolism, 6-weeks",11%
same,Impact (Sum VIP Score),"Purine Metabolism, 6-weeks",10.2
same,Increased,"Purine Metabolism, 6-weeks",3
same,Observed Hits in the Top 48 Metabolites,"Purine Metabolism, 6-weeks",5
same,Linear Ratio,"Purine, 6-weeks",1.307
same,VIP Score,"Purine, 6-weeks",1.980
same,Z Abs,"Purine, 6-weeks",1.650
same,Z Score,"Purine, 6-weeks",1.650
same,Decreased,"Pyrimidine Metabolism, 2-days",1
same,Fold Enrichment (Obs/Exp),"Pyrimidine Metabolism, 2-days",1.6
same,Fraction of Impact (VIP Score) Explained (% of 119.7),"Pyrimidine Metabolism, 2-days",4%
same,Impact (Sum VIP Score),"Pyrimidine Metabolism, 2-days",4.3
same,Increased,"Pyrimidine Metabolism, 2-days",1
same,Observed Hits in the Top 61 Metabolites,"Pyrimidine Metabolism, 2-days",2
same,Decreased,"Pyrimidine Metabolism, 6-weeks",0
same,Fold Enrichment (Obs/Exp),"Pyrimidine Metabolism, 6-weeks",2.0
same,Fraction of Impact (VIP Score) Explained (% of 94.6),"Pyrimidine Metabolism, 6-weeks",4%
same,Impact (Sum VIP Score),"Pyrimidine Metabolism, 6-weeks",4.2
same,Increased,"Pyrimidine Metabolism, 6-weeks",2
same,Observed Hits in the Top 48 Metabolites,"Pyrimidine Metabolism, 6-weeks",2
same,Linear Ratio,[1],1.417
same,VIP Score,[1],1.894
same,Z Abs,[1],0.971
same,Z Score,[1],0.971
same,Decreased,[2],1
same,Fold Enrichment (Obs/Exp),[2],1.4
same,Fraction of Impact (VIP Score) Explained (% of 119.7),[2],5%
same,Impact (Sum VIP Score),[2],5.6
same,Increased,[2],2
same,Observed Hits in the Top 61 Metabolites,[2],3
same,Decreased,[3],0
same,Fold Enrichment (Obs/Exp),[3],3.0
same,Fraction of Impact (VIP Score) Explained (% of 94.6),[3],10%
same,Impact (Sum VIP Score),[3],9.5
same,Increased,[3],5
same,Observed Hits in the Top 48 Metabolites,[3],5
same,Linear Ratio,"SM(d18:1/18:2), 6-weeks",1.424
same,VIP Score,"SM(d18:1/18:2), 6-weeks",1.508
same,Z Abs,"SM(d18:1/18:2), 6-weeks",0.750
same,Z Score,"SM(d18:1/18:2), 6-weeks",0.750
same,Linear Ratio,"SM(d18:1/26:0 OH), 6-weeks",1.671
same,VIP Score,"SM(d18:1/26:0 OH), 6-weeks",2.622
same,Z Abs,"SM(d18:1/26:0 OH), 6-weeks",2.002
same,Z Score,"SM(d18:1/26:0 OH), 6-weeks",2.002
same,Decreased,[4],2
same,Fold Enrichment (Obs/Exp),[4],0.4
same,Fraction of Impact (VIP Score) Explained (% of 119.7),[4],3%
same,Impact (Sum VIP Score),[4],3.6
same,Increased,[4],0
same,Observed Hits in the Top 61 Metabolites,[4],2
same,Decreased,[5],0
same,Fold Enrichment (Obs/Exp),[5],0.5
same,Fraction of Impact (VIP Score) Explained (% of 94.6),[5],4%
same,Impact (Sum VIP Score),[5],4.1
same,Increased,[5],2
same,Observed Hits in the Top 48 Metabolites,[5],2
same,Decreased,[6],6
same,Increased,[6],42
same,Decreased,[7],23
same,Increased,[7],38
same,Decreased,[8],1
same,Fold Enrichment (Obs/Exp),[8],3.5
same,Fraction of Impact (VIP Score) Explained (% of 119.7),[8],2%
same,Impact (Sum VIP Score),[8],2.0
same,Increased,[8],0
same,Observed Hits in the Top 61 Metabolites,[8],1
same,Linear Ratio,"Tiglylglycine, 6-weeks",1.302
same,VIP Score,"Tiglylglycine, 6-weeks",1.878
same,Z Abs,"Tiglylglycine, 6-weeks",1.310
same,Z Score,"Tiglylglycine, 6-weeks",1.310
same,Decreased,[9],0
same,Fold Enrichment (Obs/Exp),[9],1.5
same,Fraction of Impact (VIP Score) Explained (% of 94.6),[9],2%
same,Impact (Sum VIP Score),[9],2.1
same,Increased,[9],1
same,Observed Hits in the Top 48 Metabolites,[9],1
same,Decreased,[10],0
same,Fold Enrichment (Obs/Exp),[10],1.2
same,Fraction of Impact (VIP Score) Explained (% of 119.7),[10],1%
same,Impact (Sum VIP Score),[10],1.6
same,Increased,[10],1
same,Observed Hits in the Top 61 Metabolites,[10],1
same,Decreased,[11],0
same,Fold Enrichment (Obs/Exp),[11],2.4
same,Fraction of Impact (VIP Score) Explained (% of 119.7),[11],2%
same,Impact (Sum VIP Score),[11],1.8
